{"source": "paper PMC4155405", "about": "(Nature communications, 2014)", "key": {"[1]": {"tested_on": "MDCK cells", "conditions": "cited from earlier work"}, "[2]": {"tested_on": "Wuhan95 virus", "format": "cell-based"}, "[3]": {"tested_on": "Jurkat cells", "conditions": "cited from earlier work"}}}
{"smiles": "NC(=O)c1nc(F)c[nH]c1=O", "note": "[favipiravir]", "values": [{"measurement": "cytotoxicity in MDCK cells", "setting": "[1]", "value": "No cytotoxicity"}]}
{"smiles": "Nc1nc2c(ncn2[C@@H]2O[C@H](CO)[C@@H](O)[C@H]2O)c(=O)[nH]1", "note": "[guanosine]", "values": [{"measurement": "reversal of ribavirin inhibition of Wuhan95 replication by guanosine", "setting": "[2]", "value": "can restore Wuhan95 replication"}, {"measurement": "ATP relative to un-treated control cells", "setting": "[3]", "value": 40, "unit": "%"}, {"measurement": "GTP relative to un-treated control cells", "setting": "[3]", "value": 600, "unit": "%"}]}
